Data reported in US11459332B2, “Substituted 2-azabicyclo[3.1.0]hexanes as TRK kinases inhibitors” (FOCHON BIOSCIENCES, LTD., priority 2018, dated 2022).

Key:
Type in all cases: cell-based
TPM3-TRKA = target: T1, TPM3-TRKA (Homo sapiens, UniProt P04629); assay: Engineered Ba/F3 cell proliferation inhibition (MTS), TPM3-TRKA; settings: Ba/F3-TPM3-TRKA cells, 72 h
T1 construct: TPM3 (fusion partner, N-terminal part); expressed in transfected cells; the other entry of the earlier key: TPM3 (P06753, Tropomyosin alpha-3 chain)
Excerpt: (§1) MTS testing kit was purchased from Promega (Madison, Wis., USA). The RPMI-1640, Fetal bovine serum and Penicillin-Streptomycin were purchased from Gibco (San Francisco, Calif., USA). Dimethyl sulfoxide (DMSO) and Puromycin were purchased from Sigma (St. Louis, Mo., USA). Mouse interleukin-3 (IL-3) was purchased from Cell signaling Technology (Boston, Mass., USA).
(§2) To investigate whether a compound is able to inhibit the activity of TRK fusion mutation in cells, a mechanism-based assay using engineered Ba/F3 cell lines stably overexpressing oncogenic rearrangement or gene mutation of TRK (TPM3-TRKA, TPM3-TRKA-G595R, AFAP1-TRKB, ETV6-TRKC and ETV6-TRKC-G623R) were developed. In this assay, inhibition of TRK fusion mutation was detected by the cell proliferation inhibition of engineered Ba/F3 cells. Engineered Ba/F3 cells were cultured in culture flasks to 40-80% confluence in RPMI-1640 supplemented with 10% fetal bovine serum, 2 ug/mL puromycin. Cells were collected and plated onto 96-well plates at desired cell density (Ba/F3-TPM3-TRKA: 3×10^4/mL, Ba/F3-TPM3-TRKA-G595R: 1×10^5/mL, Ba/F3-AFAP1-TRKB: 1×10^5/mL, Ba/F3-ETV6-TRKC: 3×10^4/mL, Ba/F3-ETV6-TRKC-G623R: 3×10^4/mL). Plates were incubated at 37° C., with 5% CO2 for 4 h. Compounds were then added to the plates with the final compound concentrations of 10000, 3333, 1111, 270, 123, 41.2, 13.7, 4.6 and 1.5 nM. Plates were incubated at 37° C., with 5% CO2 for 72 h. A mixture of 20 μl MTS/100 μl medium were added to each well and the plates were incubated at 37° C., with 5% CO2 for exactly 2 h. The reaction was stopped by adding 25 μl of 10% SDS per well. The absorbance was measured at 490 nm and 650 nm (reference wavelength). IC50 was calculated using GraphPad Prism 5.0 software.

KM12 cells = KM12 cells proliferation inhibition (MTS), mechanism-based TRK assay; settings: Homo sapiens, 72 h
Excerpt: as §1
To investigate whether a compound is able to inhibit the activity of TRK in cells, a mechanism-based assay using KM12 cells was developed. In this assay, inhibition of TRK was detected by the inhibition of KM12 cells proliferation. KM12 cells were cultured in culture flasks to 40-80% confluence in RPMI-1640 plus 10% fetal bovine serum. Cells were collected and plated onto 96-well plates at 1000 cells/well. Plates were incubated at 37° C., with 5% CO2 for 4 h. Compounds were added to the plates, the final compound concentrations were […], 123.5, 41.2, 13.7, 4.6 and 1.5 nM. Place plates at 37° C., with 5% CO2 for KM12 cells 72 h. 20 μl MTS/100 μl medium mixture solution were added to each well and incubate the plates for exactly 2 h. Stop the reaction by adding 25 μl 10% SDS per well. Measure absorbance at 490 nm and 650 nm (reference wavelength). IC50 was calculated using GraphPad Prism 5.0.

ETV6-TRKC = target: T2, ETV6-TRKC (Homo sapiens, UniProt Q16288); assay: Engineered Ba/F3 cell proliferation inhibition (MTS), ETV6-TRKC; settings: Ba/F3-ETV6-TRKC cells, 72 h
T2 construct: ETV6 (fusion partner, N-terminal part); expressed in transfected cells; the other entry of the earlier key: ETV6 (P41212, Transcription factor ETV6)
Excerpt: as §1, §2

AFAP1-TRKB = target: T3, AFAP1-TRKB (Homo sapiens, UniProt Q16620); assay: Engineered Ba/F3 cell proliferation inhibition (MTS), AFAP1-TRKB; settings: Ba/F3-AFAP1-TRKB cells, 72 h
T3 construct: AFAP1 (fusion partner, N-terminal part); expressed in transfected cells; the other entry of the earlier key: AFAP1 (Q8N556, Actin filament-associated protein 1)
Excerpt: as §1
as §2, with “Compounds were then added to the plates with the final compound concentrations of 10000, 3333, 1111, 270, 123, 41.2, 13.7, 4.6 and 1.5 nM. Plates were incubated at 37° C., with 5% CO2 for 72 h. A mixture of 20 μl MTS/100 μl medium were added to each well and the plates were incubated at 37° C., with 5% CO2 for exactly 2 h. The reaction was stopped by adding 25 μl of 10% SDS per well.” left out

ETV6-TRKC-G623R = target: T4, ETV6-TRKC-G623R (Homo sapiens, UniProt Q16288, G623R, cells depend on it); assay: Engineered Ba/F3 cell proliferation inhibition (MTS), ETV6-TRKC-G623R; settings: 72 h, read-out: ETV6-TRKC-G623R IC50
T4 construct: fused on or other part: P41212 (Transcription factor ETV6)
Excerpt: as §1
as §2, with “Compounds were then added to the plates with the final compound concentrations of 10000, 3333, 1111, 270, 123, 41.2, 13.7, 4.6 and 1.5 nM. Plates were incubated at 37° C., with 5% CO2 for 72 h. A mixture of 20 μl MTS/100 μl medium were added to each well and the plates were incubated at 37° C., with 5% CO2 for exactly 2 h. The reaction was stopped by adding 25 μl of 10% SDS per well.” left out

TPM3-TRKA-G595R = target: T5, TPM3-TRKA-G595R (Homo sapiens, UniProt P04629, G595R); assay: Engineered Ba/F3 cell proliferation inhibition (MTS), TPM3-TRKA-G595R; settings: Ba/F3-TPM3-TRKA-G595R cells, 72 h
T5 construct: TPM3 (fusion partner, N-terminal part); expressed in transfected cells; the other entry of the earlier key: TPM3 (P06753, Tropomyosin alpha-3 chain)
Excerpt: as §1, §2

T1 sequence (P04629 510-796 limits assumed): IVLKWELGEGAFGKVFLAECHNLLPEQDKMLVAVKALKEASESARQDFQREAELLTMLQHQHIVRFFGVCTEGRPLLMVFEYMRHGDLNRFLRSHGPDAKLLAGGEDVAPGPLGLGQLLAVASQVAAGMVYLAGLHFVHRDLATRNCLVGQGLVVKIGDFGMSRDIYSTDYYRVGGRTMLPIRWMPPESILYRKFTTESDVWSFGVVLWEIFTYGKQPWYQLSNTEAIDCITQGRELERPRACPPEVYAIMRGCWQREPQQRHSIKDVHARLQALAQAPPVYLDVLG
T2 sequence (Q16288 530-825 isoform Q16288-3 limits assumed): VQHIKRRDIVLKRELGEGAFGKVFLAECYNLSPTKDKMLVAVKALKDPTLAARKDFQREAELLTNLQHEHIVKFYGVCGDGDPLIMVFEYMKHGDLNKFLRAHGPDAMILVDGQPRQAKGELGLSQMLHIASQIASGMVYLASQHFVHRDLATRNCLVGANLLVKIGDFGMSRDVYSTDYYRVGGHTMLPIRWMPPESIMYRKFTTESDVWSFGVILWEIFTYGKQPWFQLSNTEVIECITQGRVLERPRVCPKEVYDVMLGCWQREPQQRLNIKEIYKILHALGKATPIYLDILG
T4 sequence (Q16288 whole entry G623R, the tested form may be a part): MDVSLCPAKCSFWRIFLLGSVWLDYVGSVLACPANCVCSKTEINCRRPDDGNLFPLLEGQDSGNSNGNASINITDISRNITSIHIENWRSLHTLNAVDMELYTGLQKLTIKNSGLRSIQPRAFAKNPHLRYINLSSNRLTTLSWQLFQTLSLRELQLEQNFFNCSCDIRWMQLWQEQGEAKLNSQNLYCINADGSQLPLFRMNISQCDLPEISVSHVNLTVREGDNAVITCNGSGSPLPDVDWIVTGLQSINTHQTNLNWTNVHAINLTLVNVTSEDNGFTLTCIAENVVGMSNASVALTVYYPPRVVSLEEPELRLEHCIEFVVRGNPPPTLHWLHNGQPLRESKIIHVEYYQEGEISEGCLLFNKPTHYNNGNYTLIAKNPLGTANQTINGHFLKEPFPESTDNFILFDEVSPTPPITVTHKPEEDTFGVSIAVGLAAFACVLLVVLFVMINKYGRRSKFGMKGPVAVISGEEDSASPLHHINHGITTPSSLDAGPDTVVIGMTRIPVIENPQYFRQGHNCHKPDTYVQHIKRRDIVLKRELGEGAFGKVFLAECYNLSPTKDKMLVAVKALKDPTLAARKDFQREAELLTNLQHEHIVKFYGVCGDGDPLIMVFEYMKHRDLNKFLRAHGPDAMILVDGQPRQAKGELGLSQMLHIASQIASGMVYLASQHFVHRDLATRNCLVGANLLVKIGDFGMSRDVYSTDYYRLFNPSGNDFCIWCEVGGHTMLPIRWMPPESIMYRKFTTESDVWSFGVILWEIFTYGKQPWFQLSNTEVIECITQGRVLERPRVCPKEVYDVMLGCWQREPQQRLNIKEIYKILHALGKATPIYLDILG
T5 sequence (P04629 510-796 G595R limits assumed): as the sequence (P04629 510-796 limits assumed) above, with G86R counted along it
T3 sequence (Q16620 538-822 limits assumed): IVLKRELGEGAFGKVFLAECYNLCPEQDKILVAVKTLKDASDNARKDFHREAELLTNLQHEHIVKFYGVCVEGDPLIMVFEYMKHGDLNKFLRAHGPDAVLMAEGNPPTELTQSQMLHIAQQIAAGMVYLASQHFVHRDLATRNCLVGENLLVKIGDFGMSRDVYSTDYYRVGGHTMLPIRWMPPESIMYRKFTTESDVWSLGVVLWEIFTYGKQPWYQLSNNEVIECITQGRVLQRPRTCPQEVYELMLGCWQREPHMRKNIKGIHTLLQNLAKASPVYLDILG

| SMILES | IC50 (TPM3-TRKA) | IC50 (KM12 cells) | IC50 (ETV6-TRKC) | IC50 (AFAP1-TRKB) | GI50 (ETV6-TRKC-G623R) | IC50 (TPM3-TRKA-G595R) |
| --- | --- | --- | --- | --- | --- | --- |
| O=C(Nc1cnn2ccc(N3CC[C@H]4C[C@]43c3cc(F)ccc3F)nc12)N1CC[C@H](O)C1 [Example 1, (S)—N-(5-((1R,5S)-1-(2,5-difluorophenyl)-2-azabicyclo[3.1.0]hexan-2-yl)pyrazolo[1,5-a]pyrimidin-3-yl)-3-hydroxypyrrolidine-1-carboxamide] | 3 nM | 1 nM | 1 nM | 14 nM |  |  |
| CC(C)c1nnc(-c2cnn3ccc(N4CC[C@H]5C[C@]54c4cc(F)ccc4F)nc23)s1 [Example 26, 2-(5-((1R,5S)-1-(2,5-difluorophenyl)-2-azabicyclo [3.1.0]hexan-2-yl)pyrazolo[1,5-a]pyrimidin-3-yl)-5-isopropyl-1,3,4-thiadiazole] | 2 nM | 4 nM | 1 nM |  | 6 nM | 15 nM |
| CC(C)(C)c1nnc(-c2cnn3ccc(N4CC[C@H]5C[C@]54c4cc(F)ccc4F)nc23)s1 [Example 27, 2-(tert-butyl)-5-(5-((1R,5S)-1-(2,5-difluorophenyl)-2-azabicyclo[3.1.0]hexan-2-yl)pyrazolo[1,5-a]pyrimidin-3-yl)-1,3,4-thiadiazole] | 2 nM | 11 nM | 11 nM |  | 20 nM | 21 nM |
